Measured values published in patent publication US11891365B2, “3-alkyl-4-amido-bicyclic [4,5,0] hydroxamic acids as HDAC inhibitors” (Valo Health, Inc., priority 2015, dated 2024).
pIC50: −log10 of the molar value.

Biological target: T1, Full length human recombinant HDAC6 protein (Homo sapiens, UniProt Q9UBN7)
T1 sequence (Q9UBN7 1-1215): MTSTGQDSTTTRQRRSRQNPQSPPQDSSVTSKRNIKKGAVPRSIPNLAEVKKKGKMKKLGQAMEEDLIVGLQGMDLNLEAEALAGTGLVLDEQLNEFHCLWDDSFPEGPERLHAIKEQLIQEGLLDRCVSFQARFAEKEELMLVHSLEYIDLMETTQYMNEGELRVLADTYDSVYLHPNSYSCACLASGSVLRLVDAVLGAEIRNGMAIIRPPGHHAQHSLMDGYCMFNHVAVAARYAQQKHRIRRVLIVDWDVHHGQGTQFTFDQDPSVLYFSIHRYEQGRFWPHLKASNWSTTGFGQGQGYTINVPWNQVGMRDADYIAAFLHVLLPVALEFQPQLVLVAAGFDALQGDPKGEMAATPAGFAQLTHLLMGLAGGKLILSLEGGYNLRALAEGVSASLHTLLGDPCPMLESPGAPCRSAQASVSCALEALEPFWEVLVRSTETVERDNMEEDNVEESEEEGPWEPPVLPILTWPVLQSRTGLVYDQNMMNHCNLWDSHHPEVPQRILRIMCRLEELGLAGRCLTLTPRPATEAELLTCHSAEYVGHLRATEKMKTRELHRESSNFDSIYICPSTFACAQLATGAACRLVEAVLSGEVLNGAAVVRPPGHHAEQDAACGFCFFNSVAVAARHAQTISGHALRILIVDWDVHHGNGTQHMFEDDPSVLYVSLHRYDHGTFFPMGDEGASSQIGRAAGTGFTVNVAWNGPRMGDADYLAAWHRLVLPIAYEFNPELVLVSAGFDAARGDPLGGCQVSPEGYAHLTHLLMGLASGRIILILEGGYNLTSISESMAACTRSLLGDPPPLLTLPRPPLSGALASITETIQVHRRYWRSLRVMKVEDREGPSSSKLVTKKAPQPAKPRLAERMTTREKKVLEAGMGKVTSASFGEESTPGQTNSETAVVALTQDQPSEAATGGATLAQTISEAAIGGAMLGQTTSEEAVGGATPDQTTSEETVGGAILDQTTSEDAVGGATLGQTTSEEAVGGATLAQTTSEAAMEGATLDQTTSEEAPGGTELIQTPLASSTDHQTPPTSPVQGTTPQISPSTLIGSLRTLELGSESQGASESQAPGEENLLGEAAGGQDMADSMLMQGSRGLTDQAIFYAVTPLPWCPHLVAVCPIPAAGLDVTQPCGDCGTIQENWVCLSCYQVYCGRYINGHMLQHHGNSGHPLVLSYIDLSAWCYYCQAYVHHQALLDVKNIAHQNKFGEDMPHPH
Assay: In vitro histone deacetylase assay: enzymatic HDAC6 electrophoretic mobility shift assay
Type: biochemical
Details: 1 nM enzyme, 2 μM peptide substrate RHKK(Ac)-NH2, 25° C., 12 concentrations; read-out: Inhibitory Concentration (IC50) Values against HDAC6, Activity Range
Description: The enzymatic HDAC6 assay was performed using electrophoretic mobility shift assay. […] The enzymatic reactions were assembled in 384 well plates in a total volume of 25 μL in a reaction buffer composing: 100 mM HEPES, pH7.5, 25 mM KCl, 0.1% bovine serum albumin, 0.01% Triton X-100, 1% DMSO (from compounds) 2 μM of the fluorescently labeled peptide substrate and enzyme. The enzyme was added at a final concentration of 1 nM. The peptide substrate RHKK(Ac)—NH2 was used. The compounds were tested at 12 concentrations spaced by 3× dilution intervals. Negative control samples ([…] in the absence of inhibitor) and positive control samples (100%-inhibition) were assembled in replicates of four in each assay plate. The reactions were incubated at 25° C. and quenched by the addition of 45 μL of termination buffer (100 mM HEPES, pH 7.5, 0.01% Triton X-100, 0.05% SDS).
The terminated assay plates were analyzed on LabChip® 3000 microfluidic electrophoresis instrument (Perkin Elmer/Caliper Life Sciences). The fluorescence intensity of the electrophoretically separated de-acetylated product and substrate peptide was measured. Activity in each sample was determined as the product to sum ratio (PSR): P/(S+P), where P is the peak height of the product peptide and S is the peak height of the substrate peptide. Percent inhibition (Pinh) is determined using the following equation:
Pinh=(PSR0%−PSRinh)/(PSR0%−PSR100%)*100, where PSRinh is the product sum ratio in the presence of inhibitor, PSR0% is the average product sum ration in the absence of inhibitor and PSR100% is the average product sum ratio in 100%-inhibition control samples. The IC50 values of inhibitors were determined by fitting the %-inhibition curves with 4 parameter dose-response model using XLfit 4 software.

SMILES | pIC50
O=C(NO)c1ccc2c(c1)OCC1(CC1)N(C(=O)C1CCOCC1)C2 [N-hydroxy-4-(tetrahydro-2H-pyran-4-carbonyl)-4,5-dihydro-2H-spiro[benzo[f][1,4]oxazepine-3,1′-cyclopropane]-8-carboxamide] | ≥ 7.00
CC(=O)N1CCCC(C(=O)N2CCOc3cc(C(=O)NO)ccc3C2)C1 (stereo not drawn) [4-(1-acetylpiperidine-3-carbonyl)-N-hydroxy-2,3,4,5-tetrahydrobenzo[f][1,4]oxazepine-8-carboxamide] | ≥ 7.00
COC[C@@H]1COc2cc(C(=O)NO)ccc2CN1C(=O)C1CCOCC1 [(R)-N-hydroxy-3-(methoxymethyl)-4-(tetrahydro-2H-pyran-4-carbonyl)-2,3,4,5-tetrahydrobenzo[f][1,4]oxazepine-8-carboxamide] | < 6.30
C[C@@H]1CN(C(=O)C2(C)CCC2)Cc2ccc(C(=O)NO)cc2O1 [(R)-N-hydroxy-2-methyl-4-(1-methylcyclobutane-1-carbonyl)-2,3,4,5-tetrahydrobenzo[f][1,4]oxazepine-8-carboxamide] | ≥ 7.00
COC1(C(=O)N2CCOc3cc(C(=O)NO)ccc3C2)CCC1 [N-hydroxy-4-(1-methoxycyclobutane-1-carbonyl)-2,3,4,5-tetrahydrobenzo[f][1,4]oxazepine-8-carboxamide] | ≥ 7.00
C[C@H]1c2ccc(C(=O)NO)cc2OCCN1C(=O)C1CCOCC1 [(S)-N-hydroxy-5-methyl-4-(tetrahydro-2H-pyran-4-carbonyl)-2,3,4,5-tetrahydrobenzo[f][1,4]oxazepine-8-carboxamide] | ≥ 7.00
O=C(NO)c1ccc2c(c1)OCCN(C(=O)[C@@H]1CCCOC1)C2 [(R)-N-hydroxy-4-(tetrahydro-2H-pyran-3-carbonyl)-2,3,4,5-tetrahydrobenzo[f][1,4]oxazepine-8-carboxamide] | ≥ 7.00
COC[C@@H]1CN(C(=O)C2(C)CCC2)Cc2ccc(C(=O)NO)cc2O1 [(S)-N-hydroxy-2-(methoxymethyl)-4-(1-methylcyclobutane-1-carbonyl)-2,3,4,5-tetrahydrobenzo[f][1,4]oxazepine-8-carboxamide] | ≥ 7.00
COCC1(C(=O)N2Cc3ccc(C(=O)NO)cc3OC[C@@H]2C)CC1 [(S)-N-hydroxy-4-(1-(methoxymethyl)cyclopropane-1-carbonyl)-3-methyl-2,3,4,5-tetrahydrobenzo[f][1,4]oxazepine-8-carboxamide] | ≥ 7.00
O=C(NO)c1ccc2c(c1)OCCN(C(=O)CC1CC1)C2 [4-(2-cyclopropylacetyl)-N-hydroxy-2,3,4,5-tetrahydrobenzo[f][1,4]oxazepine-8-carboxamide] | ≥ 7.00
CC1(C(=O)N2CC(=O)Nc3ccc(C(=O)NO)cc3C2)CCC1 [N-hydroxy-4-(1-methylcyclobutane-1-carbonyl)-2-oxo-2,3,4,5-tetrahydro-1H-benzo[e][1,4]diazepine-7-carboxamide] | 6.30 to 7.00
O=C(NO)c1ccc2c(c1)OCCN(C(=O)C1Oc3ccccc3C13CCNCC3)C2 (stereo not drawn) [N-hydroxy-4-(2H-spiro[benzofuran-3,4′-piperidine]-2-carbonyl)-2,3,4,5-tetrahydrobenzo[f][1,4]oxazepine-8-carboxamide] | 6.30 to 7.00
Cc1nc(CC(=O)N2CCOc3cc(C(=O)NO)ccc3C2)cs1 [N-hydroxy-4-(2-(2-methylthiazol-4-yl)acetyl)-2,3,4,5-tetrahydrobenzo[f][1,4]oxazepine-8-carboxamide] | 6.30 to 7.00
O=C(NO)c1ccc2c(c1)OCCN(C(=O)Cc1ccc(C(F)(F)F)cc1)C2 [N-hydroxy-4-(2-(4-(trifluoromethyl)phenyl)acetyl)-2,3,4,5-tetrahydrobenzo[f][1,4]oxazepine-8-carboxamide] | < 6.30
COC[C@@H]1CN(C(=O)C2CCOCC2)Cc2ccc(C(=O)NO)cc2O1 [(S)-N-hydroxy-2-(methoxymethyl)-4-(tetrahydro-2H-pyran-4-carbonyl)-2,3,4,5-tetrahydrobenzo[f][1,4]oxazepine-8-carboxamide] | 6.30 to 7.00
O=C(NO)c1ccc2c(c1)OCCN(C(=O)C1(c3ccccc3)CCC1)C2 [N-hydroxy-4-(1-phenylcyclobutane-1-carbonyl)-2,3,4,5-tetrahydrobenzo[f][1,4]oxazepine-8-carboxamide] | ≥ 7.00
COc1ccc(C(=O)N2CCOc3cc(C(=O)NO)ccc3C2)c(OC)c1 [4-(2,4-dimethoxybenzoyl)-N-hydroxy-2,3,4,5-tetrahydrobenzo[f][1,4]oxazepine-8-carboxamide] | 6.30 to 7.00
C[C@H]1COc2cc(C(=O)NO)ccc2CN1C(=O)C(C)(C)C1CCOCC1 [(S)-N-hydroxy-3-methyl-4-(2-methyl-2-(tetrahydro-2H-pyran-4-yl)propanoyl)-2,3,4,5-tetrahydrobenzo[f][1,4]oxazepine-8-carboxamide] | ≥ 7.00
O=C(NO)c1ccc2c(c1)OCCN(C(=O)C(c1ccccc1)n1cnnn1)C2 (stereo not drawn) [N-hydroxy-4-(2-phenyl-2-(1H-tetrazol-1-yl)acetyl)-2,3,4,5-tetrahydrobenzo[f][1,4]oxazepine-8-carboxamide] | 6.30 to 7.00
C[C@@H]1c2ccc(C(=O)NO)cc2OCCN1C(=O)C1CCOCC1 [(R)-N-hydroxy-5-methyl-4-(tetrahydro-2H-pyran-4-carbonyl)-2,3,4,5-tetrahydrobenzo[f][1,4]oxazepine-8-carboxamide] | < 6.30
CC(C)(O)C(=O)N1CCOc2cc(C(=O)NO)ccc2C1 [N-hydroxy-4-(2-hydroxy-2-methylpropanoyl)-2,3,4,5-tetrahydrobenzo[f][1,4]oxazepine-8-carboxamide] | 6.30 to 7.00
O=C(NO)c1ccc2c(c1)OCCN(C(=O)C1(S(=O)(=O)c3ccccc3)CC1)C2 [N-hydroxy-4-(1-(phenylsulfonyl)cyclopropane-1-carbonyl)-2,3,4,5-tetrahydrobenzo[f][1,4]oxazepine-8-carboxamide] | ≥ 7.00
COc1ccccc1C(C)(C)C(=O)N1CCOc2cc(C(=O)NO)ccc2C1 [N-hydroxy-4-(2-(2-methoxyphenyl)-2-methylpropanoyl)-2,3,4,5-tetrahydrobenzo[f][1,4]oxazepine-8-carboxamide] | < 6.30
CC(C(=O)N1CCOc2cc(C(=O)NO)ccc2C1)c1cccnc1 (stereo not drawn) [N-hydroxy-4-(2-(pyridin-3-yl)propanoyl)-2,3,4,5-tetrahydrobenzo[f][1,4]oxazepine-8-carboxamide] | ≥ 7.00
O=C(NO)c1ccc2c(c1)OCCN(C(=O)C1COC1)C2 [N-hydroxy-4-(oxetane-3-carbonyl)-2,3,4,5-tetrahydrobenzo[f][1,4]oxazepine-8-carboxamide] | ≥ 7.00
O=C(NO)c1ccc2c(c1)OCCN(C(=O)C1Cc3ccccc31)C2 (stereo not drawn) [4-(bicyclo[4.2.0]octa-1(6),2,4-triene-7-carbonyl)-N-hydroxy-2,3,4,5-tetrahydrobenzo[f][1,4]oxazepine-8-carboxamide] | ≥ 7.00
CN(C)c1c(C(=O)N2CCOc3cc(C(=O)NO)ccc3C2)sc2ccccc12 [4-(3-(dimethylamino)benzo[b]thiophene-2-carbonyl)-N-hydroxy-2,3,4,5-tetrahydrobenzo[f][1,4]oxazepine-8-carboxamide] | ≥ 7.00
